Entries after “also recorded” stand apart in the source; their conditions may differ.

The target of assay [1] is KRAS Q61H GTP + RAF1 + CYPA (Homo sapiens, UniProt P01116+P62937, Q61H). Put plainly: Ras: RAF1 HTRF Assay (RAS-GTP & Raf disruption). To be noted: 1 h incubation, room temperature. In kind it is biochemical. Background: TR-FRET usually uses a lanthanide donor and a delayed reading to cut background.
A further assay has as its system HepG2 (NRAS Q61L) cells. Put plainly: Cell Viability Assay (MTS). To be noted: 5 days, FIG. 2. Type of assay: cell-based. An excerpt:
(§1) Selective screening using RAS-driven and RAS-non-driven cells: (1) RAS-driven cells, including cells with persistent RAS activation due to RAS mutations and upstream EGFR activation. Cells that are continuously activated due to RAS mutations, such as KRAS G12D (AsPC-1, HPAC, etc.) mutant cells, KRAS G12C (NCI-H358, MIAPaCa-2, etc.) KRAS G13D (LOVO, HCT15, etc.) mutant cells, etc. Cells with continuous activation of RAS due to EGFR mutations, such as EGFREx19del (PC-9, etc.) mutant cells, EGFRT790M/L858R (NCI-H1975, etc.) mutant cells, etc.; (2) Non-RAS driven cells, including BRAFV600E (A375, SK)-MEL-3, etc.) mutant cells, RASWT (BxPC-3, etc.) cells, etc.
(§2) Specific experimental methods: The above cells were seeded in a 96-well plate at a density of 1000-10000 per well. Drugs were diluted in DMSO to make a 10 mM stock solution. Subsequently, the drug was diluted in a 3-fold gradient to a final concentration of 1000 nM. The cells were treated with the drug for 5 days. Cell viability was then detected by the MTS method.

Assay [2] concerns NCI-H1975 (EGFR T790M/L858R) cells. Put plainly: Cell Viability Assay (MTS). In kind it is cell-based. To be noted: 5 days, FIG. 2.
Excerpt: as §1, §2

Another assay deals with SW620 (KRAS G12V) cells. Nature of the assay: Cell Viability Assay (MTS). In kind it is cell-based. To be noted: 5 days, FIG. 2.
Excerpt: as §1, §2

For a further assay, the system named is AGS (KRAS G12D) cells. Nature of the assay: Cell Viability Assay (MTS). Type of assay: cell-based. To be noted: 5 days, FIG. 2.
Excerpt: as §1, §2

The next assay relates to A375 (BRAF V600E) cells. Put plainly: Cell Viability Assay (MTS). Type of assay: cell-based. To be noted: RAS-independent, 5 days, FIG. 2.
Excerpt: as §1, §2

A further assay has as its system LOVO (KRAS G13D) cells. Put plainly: Cell Viability Assay (MTS). In kind it is cell-based. The conditions noted are these: 5 days, FIG. 2.
Excerpt: as §1, §2

Assay [3] has as its target KRAS G12C GTP + RAF1 + CYPA (Homo sapiens, UniProt P01116+P62937, G12C). Put plainly: Ras: RAF1 HTRF Assay (RAS-GTP & Raf disruption). In kind it is biochemical. The conditions noted are these: 1 h incubation, room temperature. How it is done:
(§3) This example is to verify the binding between RAS protein and its interacting protein (SOS1 or RAF1). When RAS exists with SOS1 or RAF, the two interact to make the energy donor and receptor bound to it close enough, and then when the donor is excited by an external light source, energy resonance transfer occurs, thereby exciting the receptor and emitting a specific wavelength of emitted light, the FRET signal is detected.
(§4) Specific experimental methods: 20 nM purified RAS protein (e.g. KRAS-G12D, G12V, G12C, WT; NRAS-WT) was incubated with the drug to be screened (the drug was diluted in a 3-fold gradient to a final concentration of 1000 nM) at room temperature for 1 h. Subsequently, 30 nM purified SOS1-Cat was added and incubated at room temperature for 0.5-1 h. After adding the detection antibody (PerkinElmer, Cisbio, HTRF antibody), the value was measured according to the manufacturer's instructions.

The target in assay [4] is KRAS G12V GTP + RAF1 + CYPA (Homo sapiens, UniProt P01116+P62937, G12V). Put plainly: Ras: RAF1 HTRF Assay (RAS-GTP & Raf disruption). In kind it is biochemical. To be noted: 1 h incubation, room temperature. How it is done:
as §3, §4

Assay [5] has as its target HRAS WT GTP + RAF1 + CYPA (Homo sapiens, UniProt P01112+P62937). Put plainly: Ras: RAF1 HTRF Assay (RAS-GTP & Raf disruption). In kind it is biochemical. The conditions noted are these: 1 h incubation, room temperature. The procedure: as §3, §4
Assay [6] addresses KRAS G12D GTP + RAF1 + CYPA (Homo sapiens, UniProt P01116+P62937, G12D). Put plainly: Ras: RAF1 HTRF Assay (RAS-GTP & Raf disruption). The conditions noted are these: 1 h incubation, room temperature. Type of assay: biochemical. The procedure: as §3, §4
Assay [7] deals with KRAS G12R GTP + RAF1 + CYPA (Homo sapiens, UniProt P01116+P62937, G12R). Put plainly: Ras: RAF1 HTRF Assay (RAS-GTP & Raf disruption). Type of assay: biochemical. The conditions noted are these: 1 h incubation, room temperature. The procedure: as §3, §4
Sequence of KRAS G12R GTP + RAF1 + CYPA (P01116 1-188 isoform P01116-2 G12R): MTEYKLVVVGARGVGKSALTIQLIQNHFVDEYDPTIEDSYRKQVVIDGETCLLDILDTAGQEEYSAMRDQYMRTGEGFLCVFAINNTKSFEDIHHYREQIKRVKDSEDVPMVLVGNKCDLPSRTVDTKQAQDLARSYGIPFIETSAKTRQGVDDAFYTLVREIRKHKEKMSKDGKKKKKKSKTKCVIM
Sequence of KRAS G12R GTP + RAF1 + CYPA (P62937 whole entry): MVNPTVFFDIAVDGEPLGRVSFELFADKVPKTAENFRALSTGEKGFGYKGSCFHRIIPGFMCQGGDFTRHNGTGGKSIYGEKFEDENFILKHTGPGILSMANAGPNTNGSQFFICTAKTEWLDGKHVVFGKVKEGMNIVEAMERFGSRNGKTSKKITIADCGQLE
The next assay deals with RAS dependent cells. Nature of the assay: Cell Viability Assay (MTS), overall statement. Type of assay: cell-based. To be noted: FIG. 2.
Excerpt: as §1, §2

For assay [8], the system named is RAF1 with active KRAS mutant protein or HRAS WT protein. Put plainly: Ras: RAF1 HTRF Assay, overall statement. Type of assay: biochemical. The conditions noted are these: in words; FIG. 1.
Assay [9] concerns the target KRAS G12S GTP + RAF1 + CYPA (Homo sapiens, UniProt P01116+P62937, G12S). Put plainly: Ras: RAF1 HTRF Assay (RAS-GTP & Raf disruption). In kind it is biochemical. The conditions noted are these: 1 h incubation, room temperature. The procedure:
as §3
Specific experimental methods: 20 nM purified RAS protein (e.g. KRAS-G12D, G12V, G12C, WT; NRAS-WT) was incubated with the drug to be screened (the drug was diluted in a 3-fold gradient to a final concentration of 1000 nM) at room temperature for 1 h. […] After adding the detection antibody (PerkinElmer, Cisbio, HTRF antibody), the value was measured according to the manufacturer's instructions.

Sequence of KRAS G12C GTP + RAF1 + CYPA (P01116 1-188 isoform P01116-2 G12C): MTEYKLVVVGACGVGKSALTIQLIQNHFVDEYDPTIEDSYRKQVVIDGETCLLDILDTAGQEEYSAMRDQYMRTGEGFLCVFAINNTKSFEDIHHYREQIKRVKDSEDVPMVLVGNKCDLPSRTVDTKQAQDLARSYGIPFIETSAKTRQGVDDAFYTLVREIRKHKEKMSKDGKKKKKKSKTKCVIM
Sequence of KRAS G12C GTP + RAF1 + CYPA (P62937 whole entry): as the sequence (P62937 whole entry) above
Sequence of HRAS WT GTP + RAF1 + CYPA (P01112 whole entry): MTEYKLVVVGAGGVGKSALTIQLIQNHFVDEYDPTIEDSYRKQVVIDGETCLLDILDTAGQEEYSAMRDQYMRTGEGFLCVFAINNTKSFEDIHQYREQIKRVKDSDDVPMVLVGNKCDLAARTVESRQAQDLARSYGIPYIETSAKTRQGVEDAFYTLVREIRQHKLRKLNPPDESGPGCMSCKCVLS
Sequence of HRAS WT GTP + RAF1 + CYPA (P62937 whole entry): as the sequence (P62937 whole entry) above
Sequence of KRAS Q61H GTP + RAF1 + CYPA (P01116 1-188 isoform P01116-2 Q61H): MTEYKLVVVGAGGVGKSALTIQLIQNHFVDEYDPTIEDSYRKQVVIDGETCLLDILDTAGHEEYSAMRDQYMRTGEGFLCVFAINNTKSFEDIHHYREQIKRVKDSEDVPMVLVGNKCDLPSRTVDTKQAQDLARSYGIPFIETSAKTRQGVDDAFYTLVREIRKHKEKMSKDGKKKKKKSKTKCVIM
Sequence of KRAS Q61H GTP + RAF1 + CYPA (P62937 whole entry): as the sequence (P62937 whole entry) above
Sequence of KRAS G12S GTP + RAF1 + CYPA (P01116 1-188 isoform P01116-2 G12S): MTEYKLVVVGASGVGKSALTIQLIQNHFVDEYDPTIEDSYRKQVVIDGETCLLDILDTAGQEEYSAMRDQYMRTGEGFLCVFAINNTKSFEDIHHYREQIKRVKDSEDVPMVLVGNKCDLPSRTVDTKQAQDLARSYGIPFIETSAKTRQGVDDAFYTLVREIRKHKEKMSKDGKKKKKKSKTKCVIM
Sequence of KRAS G12S GTP + RAF1 + CYPA (P62937 whole entry): as the sequence (P62937 whole entry) above
Sequence of KRAS G12V GTP + RAF1 + CYPA (P01116 1-188 isoform P01116-2 G12V): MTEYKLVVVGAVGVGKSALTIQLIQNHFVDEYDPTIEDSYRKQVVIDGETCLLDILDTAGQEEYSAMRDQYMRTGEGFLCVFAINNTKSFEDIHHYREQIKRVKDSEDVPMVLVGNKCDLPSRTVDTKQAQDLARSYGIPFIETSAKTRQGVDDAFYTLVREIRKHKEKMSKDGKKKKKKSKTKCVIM
Sequence of KRAS G12V GTP + RAF1 + CYPA (P62937 whole entry): as the sequence (P62937 whole entry) above
Sequence of KRAS G12D GTP + RAF1 + CYPA (P01116 1-188 isoform P01116-2 G12D): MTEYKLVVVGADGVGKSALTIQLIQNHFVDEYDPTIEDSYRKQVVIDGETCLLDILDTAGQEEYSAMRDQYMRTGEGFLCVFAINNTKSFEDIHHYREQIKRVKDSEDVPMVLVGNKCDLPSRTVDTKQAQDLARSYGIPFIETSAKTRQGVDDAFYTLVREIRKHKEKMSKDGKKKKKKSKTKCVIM
Sequence of KRAS G12D GTP + RAF1 + CYPA (P62937 whole entry): as the sequence (P62937 whole entry) above

One may read the IC50 as the concentration that gives 50% inhibition. In the case of `CCn1c(-c2cc(P(C)(C)=O)ccc2[C@H](C)OC)c2c3cc(ccc31)-c1cc(O)cc(c1)C[C@H](NC(=O)[C@H](C(C)C)N(C)C(=O)[C@@H]1OCC[C@@H]1c1ccccc1)C(=O)N1CCC[C@H](N1)C(=O)OCC(C)(C)C2` [Example 2, (2R,3R)—N-((2S)-1-(((6^3S,4S)-1^2-(5-(dimethylphosphoryl)-2-((S)-1-methoxyethyl)phenyl)-1^1-ethyl-2^5-hydroxy-10,10-dimethyl-5,7-dioxo-6^1,6^2,6^3,6^4,6^5,6^6-hexahydro-1^1H-8-oxa-1(5,3)-indola-6(1,3)-pyridazina-2(1,3)-benzenacycloundecaphane-4-yl)amino)-3-methyl-1-oxobutan-2-yl)-N-methyl-3-phenyltetrahydrofuran-2-carboxamide], the IC50 in assay [1] was 31.24 ± 0.3 nM; in assay [3], 15.8 ± 3.97 nM; in [4] it was 165 ± 7.92 nM; in [5], 467.8 ± 4.6 nM; in assay [6], 55.9 ± 8.92 nM; in [7], 729 ± 106 nM. Moreover, the IC50 in assay [9] came to 19.6 ± 1.03 nM. Besides, the “inhibition of cell viability” value in the assay with HepG2 (NRAS Q61L) cells was “significantly inhibited”; in [2], “significantly inhibited”; with SW620 (KRAS G12V) cells it was “significantly inhibited”; in the assay on AGS (KRAS G12D) cells, “significantly inhibited”; in the assay on A375 (BRAF V600E) cells, “relative insensitive”; in the assay on LOVO (KRAS G13D) cells, “significantly inhibited”. Also, the “inhibition of cell viability” value in the assay on RAS dependent cells is given as “potently inhibited”. Moreover, the “inhibition of the interaction of RAF1 with active KRAS mutant protein or HRAS WT protein” value in assay [8] is “potently inhibited; also recorded: significantly inhibited”.

The record behind these values is patent publication US20260317347A1, “MACROCYCLIC COMPOUNDS AND THERAPEUTIC USES THEREOF” (SUNRISE ONCOLOGY (HONG KONG) LIMITED, priority 2023, published 2026).
